Entries after “also recorded” stand apart in the source; their conditions may differ.
Columns and labels:
[1] = test system: MM231 breast cancer cells; experiment: MM231 orthotopic xenograft, tumor growth; assay type: in vivo, mice; details: 1 and 5 mg/kg, 3 injections per week, 3 weeks
Experimental: Female RAG2^-/-; IL-2Rgc^-/- immune deficient mice ([37]) were purchased from Envigo (Horst, The Netherlands). Orthotopic transplantations, longitudinal tumor measurements and bioluminescence imaging were performed as described ([38]). Mice were treated when tumors reached a volume of >50 mm^3, three times weekly for a period of three weeks with the indicated drug concentrations.
BM001, BM002, and BM003 were used in mice xenografted with MM231 breast cancer cells that are GH-responsive both for growth and drug resistance ([42]–[45]). The cells were orthotopically grafted into the inguinal mammary gland, and drug treatments started when tumors reached a volume of >50 mm^3. We used a treatment regimen of 3 injections per week (1 and 5 mg/kg) during 3 weeks (9 mice/group) ( Figure 6 ). Animals were killed when tumor volume exceeded 150 mm^3 or mice presented lung metastasis upon bioluminescence imaging measurements. […] Drug withdrawal effects were not studied until now. […] We observed no adverse side effects neither on appetite and behavior ([46]). […] We next assessed if the identified drugs indeed target the GH/IGF1 pathway and consequently, if they result in a decrease in liver weight and IGF1 levels, as observed in GHR knockout mice and Laron patients ([47]).

GHR = molecular target: T1, GHR (Homo sapiens, UniProt P10912); experiment: Endogenous GHR levels in IM-9 human B lymphoblasts (immunoprecipitation); assay type: cell-based; details: for levels of GHR: IM-9 lymphoblasts, in 4 h
T1 construct: endogenous in cells; host or cells: IM-9 human B lymphoblasts
T1 sequence (P10912 19-638): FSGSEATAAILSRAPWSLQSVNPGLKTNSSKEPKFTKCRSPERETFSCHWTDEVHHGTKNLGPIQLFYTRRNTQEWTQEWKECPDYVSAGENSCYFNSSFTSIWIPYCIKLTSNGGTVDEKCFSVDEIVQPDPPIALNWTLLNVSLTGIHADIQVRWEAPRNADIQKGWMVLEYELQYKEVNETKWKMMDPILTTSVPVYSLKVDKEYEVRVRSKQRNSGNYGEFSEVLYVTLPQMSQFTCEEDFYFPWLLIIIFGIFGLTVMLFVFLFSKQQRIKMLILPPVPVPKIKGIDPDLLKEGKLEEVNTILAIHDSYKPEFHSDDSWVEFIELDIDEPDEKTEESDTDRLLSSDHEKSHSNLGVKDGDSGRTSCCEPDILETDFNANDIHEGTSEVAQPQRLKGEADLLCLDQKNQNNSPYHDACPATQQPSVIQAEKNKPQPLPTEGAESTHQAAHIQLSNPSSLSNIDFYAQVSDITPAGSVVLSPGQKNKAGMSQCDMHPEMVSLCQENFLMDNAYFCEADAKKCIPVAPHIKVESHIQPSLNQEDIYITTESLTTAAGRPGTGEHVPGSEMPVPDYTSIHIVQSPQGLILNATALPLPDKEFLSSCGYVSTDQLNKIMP
Experimental: For GHR-Jak2 co-immunoprecipitations, the cells were lysed in 20 mM Tris pH 8.0, 150 mM NaCl, 0.5% NP40, 1 mM PMSF, […]. Cell lysates were centrifuged to pellet the nuclei and the supernatants were used for GHR isolation in 1% Triton X-100, 0.5% SDS,0.25% sodium deoxycholate, 0.5% BSA, and inhibitors via immune precipitation with anti-GHR and protein A beads. Immunoprecipitates were subjected to reducing SDS-PAGE and transferred to Immobilon-FL polyvinylidenedifluoride membrane (Millipore). Blots were immunostained with the indicated primary antibodies followed by Alexa Fluor 680, Alexa-800 IRDye conjugated anti-mouse or anti-rabbit antibodies. Detection was performed with an Odyssey system (LI-COR Biosciences).
In the primary screen we used soluble fos-zipped GHR cytosolic tails that act in signaling complexes if co-expressed with Jak2. Initially, 6 scenarios were anticipated that can lower these signals. In the discovery itinerary we used the flow cytometer assay twice to find drugs that act on the GH-induced Jak2/STAT5 pathway and not on the identical GM/CSF-driven pathway ( Figure 3 , Figure S8 ). As the GM/CSF-induced Jak2/STAT5 pathway was not affected by the 2 hit compounds (BM004 and BM012), that served as prototypes for the final analogue selection, we excluded the possibility that they act on the Jak2 signaling pathway directly (scenario 1). To test scenario 2 (inhibition of fos-GHRct expression), we treated GHR-expressing Hek293T cells with a selection of drugs from the cell proliferation studies and analyzed the GHR species. […] The ratio between the amounts of GHR in the ER and at the PM reflects a steady state of synthesis (ER) and transport to the PM followed by endocytosis and degradation in the lysosomes. […] Because both species diminished, the drugs either inhibit the synthesis of GHR molecules or induce rapid GHR degradation in the ER. To decide between these possibilities, we performed in vitro translation experiments. […]
Figure 7 Effect of drugs on protein synthesis. […] The blots were detected with anti-GHR(B). […]

| SMILES | tumor growth / tumor volume (in words) [1] | GHR in IM-9 cells (GHR; drugs 4 hrs) | levels of GHR (GHR) |
| --- | --- | --- | --- |
| Cc1nc(N)nc(N)c1/C=C/C1(c2ccc(C(F)(F)F)cc2)CC1 [BM001] | strong decrease; also recorded: continued to suppress tumor growth; also recorded: inhibit tumor growth; also recorded: tumor regression | depleted |  |
| Cc1c(-c2cccc(C#N)c2)ccc2nc(N)nc(N)c12 [BM002] | started to increase again; also recorded: inhibit tumor growth |  | ~ 60% |
| COc1cc(CN(C)c2ccc3nc(N)nc(N)c3c2)cc(OC)c1OC [BM003] | started to increase again; also recorded: inhibit tumor growth |  | ~ 60% |

Source: publication PMC9365994, “Small molecules to regulate the GH/IGF1 axis by inhibiting the growth hormone receptor synthesis” (Frontiers in Endocrinology, 2022)
